{"source": "patent US20230000960A1", "about": "“NEOANTIGEN COMPOSITIONS AND USES THEREOF” (BIONTECH US INC., priority 2019, published 2023)", "origin": "cited, not measured here", "system": "ovarian carcinoma patients", "settings": "poly-ICLC in combination with a NYESO-1 peptide vaccine (in addition to Montanide); phase 1 study", "data": [{"substance": "poly-ICLC", "values": [{"measurement": "patients showing induction of CD4+ and CD8+ T cell, as well as antibody responses to the peptide", "value": "> 90", "unit": "%"}]}]}
